In US7163946B2 (Ligand Pharmaceuticals Incorporated, priority 2002, dated 2007):

Legend:
Format in all cases: cell-based
hPR = target: T1, hPR (Homo sapiens, UniProt P06401); experiment: hPR cotransfection assay in CV-1 cells, antagonist mode; conditions: for Emax: CV-1, CV-1 cells, maximal inhibition of reference agonist at EC50 concentration, read-out: hPR Antagonist CV-1 Cells Eff. (%); for IC50: CV-1 cells
T1 sequence (P06401 1-933): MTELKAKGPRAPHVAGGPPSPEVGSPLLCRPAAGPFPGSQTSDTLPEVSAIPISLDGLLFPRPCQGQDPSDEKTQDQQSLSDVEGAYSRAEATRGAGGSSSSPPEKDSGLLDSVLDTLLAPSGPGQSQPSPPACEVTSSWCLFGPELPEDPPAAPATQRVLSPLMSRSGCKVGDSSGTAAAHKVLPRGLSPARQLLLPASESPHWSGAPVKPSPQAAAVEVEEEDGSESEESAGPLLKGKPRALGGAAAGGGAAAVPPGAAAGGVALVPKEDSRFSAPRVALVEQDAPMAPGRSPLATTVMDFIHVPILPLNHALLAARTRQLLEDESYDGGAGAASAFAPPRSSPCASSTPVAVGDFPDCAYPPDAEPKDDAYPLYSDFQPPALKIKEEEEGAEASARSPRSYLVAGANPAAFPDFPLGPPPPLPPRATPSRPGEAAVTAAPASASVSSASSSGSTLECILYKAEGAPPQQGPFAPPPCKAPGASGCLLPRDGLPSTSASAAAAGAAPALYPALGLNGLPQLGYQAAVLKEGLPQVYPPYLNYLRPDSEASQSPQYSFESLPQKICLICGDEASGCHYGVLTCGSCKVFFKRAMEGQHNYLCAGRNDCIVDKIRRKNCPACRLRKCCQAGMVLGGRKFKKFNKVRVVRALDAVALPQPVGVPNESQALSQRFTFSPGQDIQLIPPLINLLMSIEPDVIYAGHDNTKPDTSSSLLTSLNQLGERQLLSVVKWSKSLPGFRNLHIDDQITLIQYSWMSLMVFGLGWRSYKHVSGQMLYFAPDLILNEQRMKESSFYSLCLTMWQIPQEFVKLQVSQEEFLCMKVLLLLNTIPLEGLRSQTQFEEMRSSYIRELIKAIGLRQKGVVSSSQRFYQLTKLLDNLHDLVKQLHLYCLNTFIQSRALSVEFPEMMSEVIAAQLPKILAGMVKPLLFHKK

hGR = target: T2, hGR (Homo sapiens, UniProt P04150); experiment: hGR cotransfection assay (potency ratio to hPR); conditions: receptor-selectivity potency ratio, cotransfection assays
T2 sequence (P04150 1-777): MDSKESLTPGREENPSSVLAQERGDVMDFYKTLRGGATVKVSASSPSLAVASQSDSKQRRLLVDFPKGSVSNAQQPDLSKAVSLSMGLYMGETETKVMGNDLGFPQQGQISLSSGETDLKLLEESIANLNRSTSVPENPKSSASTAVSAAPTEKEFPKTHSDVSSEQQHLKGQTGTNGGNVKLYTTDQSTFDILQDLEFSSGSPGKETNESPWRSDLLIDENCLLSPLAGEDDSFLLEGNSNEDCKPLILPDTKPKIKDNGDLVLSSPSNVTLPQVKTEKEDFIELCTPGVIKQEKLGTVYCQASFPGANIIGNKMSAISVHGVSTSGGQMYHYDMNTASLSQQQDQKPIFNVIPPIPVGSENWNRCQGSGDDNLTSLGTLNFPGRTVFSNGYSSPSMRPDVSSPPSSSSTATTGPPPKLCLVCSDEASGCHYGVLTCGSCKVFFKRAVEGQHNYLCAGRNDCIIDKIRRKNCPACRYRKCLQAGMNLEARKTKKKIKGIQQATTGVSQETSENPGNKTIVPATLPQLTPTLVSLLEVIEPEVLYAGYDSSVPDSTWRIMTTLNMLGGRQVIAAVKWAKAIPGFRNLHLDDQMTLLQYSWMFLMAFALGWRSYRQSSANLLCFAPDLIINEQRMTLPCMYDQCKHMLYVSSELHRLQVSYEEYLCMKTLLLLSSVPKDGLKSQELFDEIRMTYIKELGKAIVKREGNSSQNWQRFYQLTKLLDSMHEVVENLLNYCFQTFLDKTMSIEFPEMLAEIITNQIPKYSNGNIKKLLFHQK

[1] = target: T3, human mineralocorticoid receptor (hMR) (Homo sapiens, UniProt P08235); experiment: hMR cotransfection assay (potency ratio to hPR); conditions: receptor-selectivity potency ratio, cotransfection assays
T3 sequence (P08235 1-984): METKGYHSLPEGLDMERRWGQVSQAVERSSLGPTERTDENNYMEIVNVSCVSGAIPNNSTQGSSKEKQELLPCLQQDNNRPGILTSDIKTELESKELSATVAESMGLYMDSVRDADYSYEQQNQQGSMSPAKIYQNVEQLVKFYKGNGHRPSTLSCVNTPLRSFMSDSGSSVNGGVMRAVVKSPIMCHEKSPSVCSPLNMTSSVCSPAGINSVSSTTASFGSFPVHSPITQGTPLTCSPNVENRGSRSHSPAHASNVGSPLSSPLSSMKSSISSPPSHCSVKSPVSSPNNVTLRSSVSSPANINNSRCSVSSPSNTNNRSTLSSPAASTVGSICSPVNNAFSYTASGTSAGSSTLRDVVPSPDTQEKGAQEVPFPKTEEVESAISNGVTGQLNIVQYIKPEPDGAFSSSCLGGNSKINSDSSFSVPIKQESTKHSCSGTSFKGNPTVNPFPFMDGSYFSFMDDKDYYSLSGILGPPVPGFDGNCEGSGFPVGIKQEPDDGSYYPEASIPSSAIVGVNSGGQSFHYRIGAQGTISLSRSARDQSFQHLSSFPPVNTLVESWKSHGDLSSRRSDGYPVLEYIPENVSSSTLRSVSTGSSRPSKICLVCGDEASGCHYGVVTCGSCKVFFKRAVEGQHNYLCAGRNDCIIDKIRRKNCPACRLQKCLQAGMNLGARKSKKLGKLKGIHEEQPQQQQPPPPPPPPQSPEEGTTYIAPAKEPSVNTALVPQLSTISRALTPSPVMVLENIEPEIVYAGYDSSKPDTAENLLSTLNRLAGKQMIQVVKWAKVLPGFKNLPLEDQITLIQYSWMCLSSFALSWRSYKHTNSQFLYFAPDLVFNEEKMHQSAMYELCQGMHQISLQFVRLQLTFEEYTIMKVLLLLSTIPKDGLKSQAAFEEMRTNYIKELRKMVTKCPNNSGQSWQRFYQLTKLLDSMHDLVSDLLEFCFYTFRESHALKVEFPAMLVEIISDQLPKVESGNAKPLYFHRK

Row | Emax (hPR) [%] | IC50 (hPR) [µM] | hGR EC50 or IC50/hPR EC50 (hGR) | hMR EC50 or IC50/hPR EC50 [1] | SMILES
1 | < 20 | > 10 | 19 | >1000 | CC1=CC(C)(C)Nc2ccc3c(c21)/C(=C/c1ccsc1)Oc1c(F)cc(F)cc1-3 [Compound 30, 7,9-difluoro-5(Z)-(3-thienylmethylidene)-1,2-dihydro-2,2,4-trimethyl-5H-chromeno[3,4-f]quinoline]
2 | < 20 | > 10 | 59 | >1000 | CC1=CC(C)(C)Nc2ccc3c(c21)/C(=C/c1cccs1)Oc1c(F)cc(F)cc1-3 [Compound 31, 7,9-difluoro-5(Z)-(2-thienylmethylidene)-1,2-dihydro-2,2,4-trimethyl-5H-chromeno[3,4-f]quinoline]
